# Data from patent US20200247859A1, “CONSTRUCT FOR EXPRESSING G PROTEIN-COUPLED RECEPTOR OR SUBUNIT THEREOF, AND USE OF SAID CONSTRUCT” (JAPAN TOBACCO INC., priority 2017, published 2020).
# Where two headings read alike, the source gives them in different places.
# Assays:
# T2R40 = target: T1, T2R40 (Homo sapiens, UniProt P59535); test: Response of Gα-T2R40 stable expression cell line to agonist (Fluo-8 calcium fluorescence); assay type: cell-based; conditions: Gα-T2R40 compared with T2R40-Gα; agonist 100 μM or 300 μM; FIG. 3
# T1 construct: expressed in transfected cells
# T1 sequence (P59535 whole entry): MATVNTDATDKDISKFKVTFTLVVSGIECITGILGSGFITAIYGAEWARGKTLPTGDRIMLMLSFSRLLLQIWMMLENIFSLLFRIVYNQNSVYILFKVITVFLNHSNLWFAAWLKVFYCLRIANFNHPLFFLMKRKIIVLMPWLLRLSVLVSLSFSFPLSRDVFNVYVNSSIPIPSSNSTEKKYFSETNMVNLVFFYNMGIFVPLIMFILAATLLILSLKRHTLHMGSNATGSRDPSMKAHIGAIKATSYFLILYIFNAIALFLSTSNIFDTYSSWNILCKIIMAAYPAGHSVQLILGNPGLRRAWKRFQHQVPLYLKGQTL
# Procedure: (§1) Specifically, by the same method as in Example 1 and Example 2, a Gα-T2R40 stable expression cell line (containing Gα16/Gαgust43-IRES-ssr/T2R40N5) and a Gα-T2R43 stable expression cell line (containing Gα16/Gαgust43-IRES-ssr/T2R43/V5) were prepared.
# (§2) The Gα-T2R40 stable expression cell line and the Gα-T2R43 stable expression cell line were prepared by the same method as in Example 2. […] The results are depicted in FIG. 3.
# T2R43 = target: T2, T2R43 (Homo sapiens, UniProt P59537, H212R/W35S); test: Response of Gα-T2R43 stable expression cell line to agonist (Fluo-8 calcium fluorescence); assay type: cell-based; conditions: Gα-T2R43 compared with T2R43-Gα; agonist 100 μM or 300 μM; FIG. 3
# T2 construct: expressed in transfected cells
# T2 sequence (P59537 1-309 W35S/H212R): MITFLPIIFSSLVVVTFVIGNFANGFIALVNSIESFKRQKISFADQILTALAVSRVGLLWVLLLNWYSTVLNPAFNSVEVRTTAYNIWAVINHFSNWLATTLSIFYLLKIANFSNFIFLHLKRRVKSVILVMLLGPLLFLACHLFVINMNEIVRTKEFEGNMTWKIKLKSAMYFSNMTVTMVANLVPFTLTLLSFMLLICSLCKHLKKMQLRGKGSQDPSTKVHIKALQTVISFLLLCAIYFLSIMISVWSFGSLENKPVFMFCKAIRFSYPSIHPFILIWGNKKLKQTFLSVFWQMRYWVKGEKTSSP
# Procedure: as §1, §2
# [1] = target: T3, olfactory receptor (OR3A1) (Homo sapiens, UniProt P47881); test: cAMP response in cells transiently expressing olfactory receptor (cAMP-GloMax luminescence); assay type: cell-based; conditions: FIG. 20
# T3 construct: N-terminal 21 amino acids of human rhodopsin (Rho); expressed in transfected cells; host or cells: HEK293T, transient, pcDNA vectors
# T3 sequence (P47881 2-315 limits assumed): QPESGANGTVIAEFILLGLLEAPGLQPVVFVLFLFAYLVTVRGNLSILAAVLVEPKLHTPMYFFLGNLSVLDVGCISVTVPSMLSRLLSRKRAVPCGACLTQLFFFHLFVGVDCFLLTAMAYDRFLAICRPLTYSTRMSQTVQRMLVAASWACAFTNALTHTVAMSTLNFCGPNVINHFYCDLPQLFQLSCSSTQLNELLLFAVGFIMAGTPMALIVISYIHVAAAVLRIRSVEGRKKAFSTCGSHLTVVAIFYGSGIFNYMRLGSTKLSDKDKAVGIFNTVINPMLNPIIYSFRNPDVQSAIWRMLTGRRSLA
# Procedure: Genes encoding Rho-OR3A1, in which N-terminal 21 amino acids (Rho) of human rhodopsin had been added to the N-terminus of OR3A1, and Gαolf were introduced together with IRES into pcDNA vectors by the same method as in Example 1, thereby preparing expression vectors, OR3A1-Gαolf and Gαolf-OR3A1. Using these expression vectors, transiently expressing HEK293T cells were prepared by the same method as in Example 4. As a control, HEK293T cells prepared by separate introduction of each gene of OR3A1 and Gαolf into pcDNA and then double-gene transfer thereof were used.
# Next, helional, a known agonist for OR3A1, was added onto the prepared cells (100 μM, 30 μM). The amount of cAMP produced in association with the response of OR3A1 20 minutes after the addition of helional was detected by luminescence measurement using a cAMP-GloMax assay kit (Promega).
# [2] = target: T4, human bitter taste receptor (T2R16) (Homo sapiens, UniProt Q9NYV7); test: Response of T2R16 stable expression cell line to bitter substance (Fluo-8 calcium fluorescence); assay type: cell-based; conditions: salicin 10, 3, 1, 0.3 or 0.1 mM, FIG. 2
# T4 construct: N-terminal 45 amino acids of rat somatostatin receptor 3 (ssr3); expressed in transfected cells
# T4 sequence (Q9NYV7 1-291): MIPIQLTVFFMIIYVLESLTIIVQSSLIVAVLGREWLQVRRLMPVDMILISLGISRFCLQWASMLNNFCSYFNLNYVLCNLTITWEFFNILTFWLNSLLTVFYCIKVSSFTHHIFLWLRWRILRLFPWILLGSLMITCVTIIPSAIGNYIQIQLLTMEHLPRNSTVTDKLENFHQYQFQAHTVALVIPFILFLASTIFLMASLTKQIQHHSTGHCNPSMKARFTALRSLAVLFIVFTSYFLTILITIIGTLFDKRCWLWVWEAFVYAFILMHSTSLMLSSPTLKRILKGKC
# Procedure: Specifically, into 1×10^6 cells of the human embryonic kidney cell line HEK293T (obtained from RIKEN) seeded in a culture vessel, 5 μg of each of the Gα-T2R16 and T2R16-Gα plasmid vectors prepared in Example 1 was introduced through the use of lipofectamine (registered trademark) 3000 (Thermo Fisher Scientific Inc.). After 48 hours of culture, drug resistance screening was performed by adding 100 μg/mL hygromycin B to the medium and then culturing for about 15 days. Cells that had acquired drug resistance were cloned by seeding these cells in each well of a 96-well plate at one cell per well. After about 10 days of culture, a stable expression cell line was obtained.
# The T2R16 stable expression cell line prepared based on the method described in Example 2 was seeded at 2×10^4 cells/well in a 96-well plate. The culture media for cells contained a green fluorescent calcium indicator Fluo-8 (registered trademark) (AAT Bioquest, Inc.), and the uptake of Fluo-8 into the cell lines was examined. Fluo-8 (registered trademark) is suitable for detection of intracellular calcium dynamics and is an indicator of GPCR activity.
# Cells incorporating Fluo-8 (registered trademark) were excited at 490 nm and the fluorescence intensity at 514 nm was measured. […] The results are depicted in FIG. 2.
# T2R16 [3] = target: T5, T2R16 (Homo sapiens, UniProt Q9NYV7); test: Response of T2R16 transiently expressing cells to bitter substance; assay type: cell-based; conditions: transient Gα-T2R16 in HEK293T compared with T2R16-Gα, co-transfection and Gα stable; FIG. 4
# T5 construct: expressed in transfected cells
# T5 sequence (Q9NYV7 1-291): T4 sequence (Q9NYV7 1-291)
# Procedure: Into HEK293T seeded at 2×10^4 in a 96-well plate, 0.1 μg of each of the Gα-T2R16 and the T2R16-Gα plasmid vectors was introduced using lipofectamine (registered trademark) 3000. After 30 hours of culture, response intensity to salicin was measured using the same technique as in Example 3 (1) (maximum fluorescence intensity during 40 seconds after the addition of salicin). Note that drug resistance screening with hygromycin B as in Example 2 was not performed (transiently expressing cells).
# Furthermore, as a comparative example, the following cells were also prepared other than T2R16-Gα expressing cells, and then the response to salicin was measured:
# cells (cotransfection), prepared by simultaneous gene transfer of a total of 0.1 μg of a Gα16/Gαgust43gust expression vector and a ssr-T2R16-V5 expression vector comprising a Gα16/Gαgust43 expression gene and a ssr-T2R16-V5 expression gene, respectively, via incorporation thereof into pcDNA3.1 Hygro(+) vectors for transient expression of the genes; and
# cells (Gα stable), prepared by the gene transfer of 0.1 μg of a ssr-T2R16-V5 expression vector into a Gα16/Gαgust43 stable expression cell line (subjected in advance to drug resistance screening using hygromycin B) prepared by the same technique as in Example 2 for transient expression of the genes.
# T2R16 [4] = target: T5, T2R16; test: Response intensity before and after cryopreservation of T2R16 stable expression cell line; assay type: cell-based; conditions: FIG. 7
# Procedure: Gα-T2R16 in this example was prepared in the same manner as in the case of the Gα-T2R16 stable expression cell line in Example 2, but pEAK10 (Edge biosystem, Inc.) was used as an expression vector and “ssr/T2R16” (without V5) was inserted instead of “ssr/T2R16/V5”. Further, drug resistance screening was performed with 1 μg/mL puromycin instead of hygromycin B.
# As a comparative example, into the Gα16/Gαgust43 stable expression cell line (subjected in advance to drug resistance screening with puromycin) prepared using the same technique as in Example 2, 5 μg of ssr-T2R16 expression vector was introduced and then drug resistance screening was performed using puromycin. The thus prepared stable expression cell line (Double stable) stably expressing Gα16/Gαgust43+T2R16 was used.
# Before and after cryopreservation of the cell line, the response intensity to salicin (1 or 0.1 mM) was examined in the same manner as in Example 3. For cryopreservation, CELLBANKER (Nippon Zenyaku Kogyo Co., Ltd.) was used, and cells were stored under liquid nitrogen for 1 month. The temperature for the cryopreserved cells was brought back to normal temperature, cells were passaged at least twice, and then the response intensity after cryopreservation was measured. The results are depicted in FIG. 7.
# [5] = target: T2R38 subtype (bitter taste receptor) (Homo sapiens, UniProt P59533, A49P/I296V); conditions: Gα-T2R38 stable expression cell line, FIG. 18
# Sequence of T2R38 subtype (bitter taste receptor) (P59533 whole entry A49P/I296V): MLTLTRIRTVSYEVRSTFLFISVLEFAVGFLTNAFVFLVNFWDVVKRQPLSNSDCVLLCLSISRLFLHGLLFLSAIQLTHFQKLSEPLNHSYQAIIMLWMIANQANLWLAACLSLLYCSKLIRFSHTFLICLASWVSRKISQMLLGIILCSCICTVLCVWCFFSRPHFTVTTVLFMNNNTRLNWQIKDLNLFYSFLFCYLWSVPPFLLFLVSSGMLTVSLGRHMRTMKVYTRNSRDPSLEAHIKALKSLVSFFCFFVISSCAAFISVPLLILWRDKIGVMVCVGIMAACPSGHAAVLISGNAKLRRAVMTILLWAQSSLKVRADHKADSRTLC
# Procedure: A Gα-T2R38 expression vector comprising a gene encoding a T2R38 subtype (bitter taste receptor) instead of the gene encoding T2R16 of Gα-T2R16 in Examples 1 and 2 was prepared, and thus a stable expression cell line was prepared by the same method as in Examples 1 and 2.
# Subsequently, using the same method as in Example 3, the response to a known T2R38 agonist, 6-n-propylthiouracil (1000 μM, 300 μM), was measured. As a control, a cell line (HEK293T) not incorporating any Gα-T2R38 expression vector was used.
smiles,measurement,setting,value
OC(CCCN1CCCCC1)(c1ccccc1)c1ccccc1 [diphenydol],response intensity of T2R40 to the agonist,T2R40,higher response intensity
C=C[C@H]1C[N@@]2CC[C@H]1C[C@H]2[C@H](O)c1ccnc2ccc(OC)cc12 [quinine],response intensity of T2R43 to the agonist,T2R43,higher response intensity
CC(C=O)Cc1ccc2c(c1)OCO2 (centres unmarked) [helional],amount of cAMP produced in association with the response of OR3A1,"[1]; HEK293T cells with Gαolf-OR3A1 expression vector, 100 μM helional, 20 minutes after addition",increase in cAMP
same,amount of cAMP produced in association with the response of OR3A1,"[1]; HEK293T cells with OR3A1-Gαolf expression vector, helional 100 μM, 30 μM, 20 minutes",no response
same,amount of cAMP produced in association with the response of OR3A1,"[1]; HEK293T cells with OR3A1 and Gαolf genes introduced separately, helional 100 μM, 30 μM, 20 minutes",no response
OCc1ccccc1O[C@@H]1O[C@H](CO)[C@@H](O)[C@H](O)[C@H]1O [salicin],response intensity of T2R16 to the agonist (increase rate of maximum fluorescence intensity),[2]; HEK293T stable cell line containing the Gα-T2R16 plasmid,exhibited responses
same,response intensity of T2R16 to the agonist (increase rate of maximum fluorescence intensity),[2]; cell line containing the comparative T2R16-Gα plasmid,almost no response
same,response intensity to salicin,T2R16 [3],response intensity higher
same,ratio of response intensity after freezing/response intensity before freezing,"T2R16 [4]; Gα-T2R16 stable expression cell line (pEAK10), salicin 0.1 mM, 1 month under liquid nitrogen",≥ 0.8
same,ratio of response intensity after freezing/response intensity before freezing,"T2R16 [4]; Gα-T2R16 stable expression cell line (pEAK10), salicin 1 mM, 1 month under liquid nitrogen",≥ 0.8
same,ratio of response intensity after freezing/response intensity before freezing,"T2R16 [4]; comparative Double stable cell line (Gα16/Gαgust43+T2R16), salicin 0.1 mM",≤ 0.4
same,ratio of response intensity after freezing/response intensity before freezing,"T2R16 [4]; comparative Double stable cell line (Gα16/Gαgust43+T2R16), salicin 1 mM",less than 0.6
CCCc1cc(=O)[nH]c(=S)[nH]1 [6-n-propylthiouracil],response to T2R38 agonist,[5]; 300 μM,exhibited
same,response to T2R38 agonist,[5]; 1000 μM,exhibited
